US20240131168A1, “NAPHTHALENE RING-CONTAINING COMPOUND, PHARMACEUTICAL COMPOSITION CONTAINING SAME, AND USE THEREOF” (JIANGSU YAHONG MEDITECH CO., LTD., priority 2021, published 2024)

Columns and labels:
Format in all cases: cell-based
MCF-7 = assay: CellTiter-Glo cell proliferation inhibition, MCF-7 (Effect Example 2); conditions: Homo sapiens, MCF7, 144 h, MCF-7 (CTG), 6 days, starting concentration 10 μM; for inhibition at up to 10 µM: read-out: IH % max (maximum inhibition percentage)
Source text: (§1) 1. Cell line • (1) Breast cancer cell lines and their culture media: • MCF-7 (ATCC; Cat. No.: HTB-22), a Luminal A breast cancer cell; • TamR-MCF-7 (ATCC; Cat. No.: CRL-3435), a breast cancer cell; • MCF-7 ER^D538G: a Luminal A breast cancer cell obtained by constructing MCF-7 (ATCC; Cat. No.: HTB-22) using CRISPR-Cas9 gene editing technology; • MCF-7 ER^Y537S: a Luminal A breast cancer cell obtained by constructing MCF-7 (ATCC; Cat. No.: HTB-22) using CRISPR-Cas9 gene editing technology; • MDA-MB-231: (manufacturer: Nanjing CoBioer Biosciences Co., Ltd.), a triple-negative breast cancer cell; • MDA-MB-468: (manufacturer: Nanjing CoBioer Biosciences Co., Ltd.), a triple-negative breast cancer cell.
(§2) Herein, the culture medium of MCF-7, TamR-MCF-7, MCF-7 ER^D538G, and MCF-7 ER^Y537S was EMEM; • the culture medium of MDA-MB-231 and MDA-MB-468 was DMEM.
(§3) 2. Reagents • Culture medium EMEM (Gibco, 1964507) • Culture medium DMEM (Gibco, 12430-054) • Fetal bovine serum (Gibco, 10091148) • Penicillin-streptomycin double antibody (Gibco, S110JV) • DPBS (Gibco, 14190-144) • CellTiter-Glo® assay kit (Promega, G7573) • Trypsin (0.25%) (Gibco, 25200-056) • DMSO (Sigma, D2650)
(§4) 3. Instruments • Biosafety cabinet (AIRTECH, BSC-1300A II) • Automated cell counter (Life Technologies, countess II) • Multifunctional microplate reader (Biotek, H1FM) • Orbital shaker (Hangzhou Allsheng Instruments Co., Ltd., OS-100) • XLFIT 5.3 (Inforstack Shanghai Co., Ltd.)
(§5) For this test method, the following experiments were performed in a biosafety cabinet, with the specific steps as follows: • (1) Cells were inoculated in a 96-well plate. One day later, the previous culture medium was poured off, 5 mL of DPBS was added to wash the cells, and then DPBS was pipetted and discarded. An appropriate amount of trypsin was then added. The plate was digested in a 37° C., 5% CO2 cell incubator for about 2 to 5 minutes and then taken out. Anew corresponding culture medium was added, and pipetted up and down to resuspend the cells evenly. The cells were then counted using an automated cell counter. • (2) Each cell was inoculated in columns 1 to 11 of a 96-well plate (Corning, Cat. No.: 3610) at a density of 1,000 or 2,000 cells per well in 100 μL of culture medium, and 100 μL of the corresponding culture medium without cells was added to the wells in column 12. The plate was then placed in a 37° C., 5% CO2 incubator for 24 hours. • (3) The compound of the present disclosure and the control drug fulvestrant (Selleck; Cat. No.: S1191) were then 4-fold serially diluted to 10 dose points starting at 10 μM. 10 μL of the serially diluted compound was pipetted and added to 100 μL of cells in columns 1 to 10, and 10 μL of the corresponding culture medium containing 0.33 v % DMSO was added to both columns 11 and 12. The plate was incubated in a 37° C., 5% CO2 incubator for 6 days or 72 hours (Note: column 11 was used as a MAX well with cells but without compound; column 12 was used as a MIN well without cells […]). • (4) The cell viability detection reagent in the CellTiter-Glo® assay kit was then added to the 96-well plate at 50 μL per well according to the instructions, and shaken on an orbital shaker in the dark for 5 to 10 minutes. The cell viability was then measured using a multifunctional microplate reader. Finally, the inhibition of cell proliferation by the compound of the present disclosure was plotted by XLFIT software, and the IC50 value (half inhibitory concentration) and the IH % max (maximum inhibition percentage) of the compound of the present disclosure were calculated.

MCF-7 ER^D538G = assay: CellTiter-Glo cell proliferation inhibition, MCF-7 ER^D538G; conditions: Homo sapiens, MCF7, 144 h, MCF-7 ER^D538G (CTG), 6 days, starting concentration 10 μM; for inhibition at up to 10 µM: read-out: IH % max (maximum inhibition percentage)
Source text: as §1, §2, §3, §4, §5

MCF-7 ER^Y537S = assay: CellTiter-Glo cell proliferation inhibition, MCF-7 ER^Y537S; conditions: Homo sapiens, MCF7, 144 h; MCF-7 ER^Y537S (CTG), 6 days, starting concentration 10 μM; read-out: IH % max (maximum inhibition percentage)
Source text: as §1, §2, §3, §4, §5

TamR-MCF-7 = assay: CellTiter-Glo cell proliferation inhibition, TamR-MCF-7; conditions: 144 h; TamR-MCF-7 (CTG), 6 days, starting concentration 10 μM; read-out: IH % max (maximum inhibition percentage)
Source text: as §1, §2, §3, §4, §5

MDA-MB-468 = assay: CellTiter-Glo cell proliferation inhibition, MDA-MB-468; conditions: Homo sapiens, 144 h; MDA-MB-468 (CTG), 6 days, starting concentration 10 μM; read-out: IH % max (maximum inhibition percentage)
Source text: as §1, §2, §3, §4, §5
Compounds D64 to D69 were tested for MDA-MB-231 (CTG) and MDA-MB-468 (CTG) with an incubation time of 72 hours in the incubator.

IC50 (MCF-7) [nM] | IC50 (MCF-7 ER^D538G) [nM] | Compound | inhibition at up to 10 µM (MCF-7) [%] | inhibition at up to 10 µM (MCF-7 ER^D538G) [%] | inhibition at up to 10 µM (MCF-7 ER^Y537S) [%] | inhibition at up to 10 µM (TamR-MCF-7) [%] | inhibition at up to 10 µM (MDA-MB-468) [%]
– | – | CCN(CCOCCOCCOCCOc1ccc2c(c1)C(=O)N(C1CCC(=O)NC1=O)C2=O)CCOc1ccc(Oc2c(-c3ccc(S(C)(=O)=O)cc3)ccc3cc(O)ccc23)cc1 (centres unmarked) [Compound D48, 2-(2,6-dioxopiperidin-3-yl)-5-((3-ethyl-1-(4-((6-hydroxy-2-(4-(methylsulfonyl)phenyl)naphthalen-1-yl)oxy)phenoxy)-6,9,12-trioxa-3-azatetradecan-14-yl)oxy)isoindoline-1,3-dione] | 32 | 66 | 41 | – | –
– | – | CCN(CCOc1ccc(Oc2c(-c3ccc(S(C)(=O)=O)cc3)ccc3cc(O)ccc23)cc1)CCN1CCN(c2ccc3c(c2)CN(C2CCC(=O)NC2=O)C3=O)CC1 (centres unmarked) [Compound D57, 3-(5-(4-(2-(ethyl(2-(4-((6-hydroxy-2-(4-(methylsulfonyl)phenyl)naphthalen-1-yl)oxy)phenoxy)ethyl)amino)ethyl)piperazin-1-yl)-1-oxoisoindolin-2-yl)piperidine-2,6-dione] | – | 51 | 46 | – | –
222 | – | CS(=O)(=O)c1ccc(-c2ccc3cc(O)ccc3c2Oc2ccc(OCCOCCOCCOCCN3CCN(c4ccc5c(c4)CN(C4CCC(=O)NC4=O)C5=O)CC3)cc2)cc1 (centres unmarked) [Compound D27] | 60 | 69 | – | 40 | –
– | – | CS(=O)(=O)c1ccc(-c2ccc3cc(O)ccc3c2Oc2ccc(OCCN3CCN(c4ccc5c(c4)C(=O)N(C4CCC(=O)NC4=O)C5)CC3)cc2)cc1 (centres unmarked) [Compound D32, 3-(6-(4-(2-(4-((6-hydroxy-2-(4-(methylsulfonyl)phenyl)naphthalen-1-yl)oxy)phenoxy)ethyl)piperazin-1-yl)-1-oxoisoindolin-2-yl)piperidine-2,6-dione] | 39 | 38 | 33 | – | –
– | – | CCN(CCOCCOCCOCCOc1cccc2c1C(=O)N(C1CCC(=O)NC1=O)C2=O)CCOc1ccc(Oc2c(-c3ccc(S(C)(=O)=O)cc3)ccc3cc(O)ccc23)cc1 (centres unmarked) [Compound D36, 2-(2,6-dioxopiperidin-3-yl)-4-((3-ethyl-1-(4-((6-hydroxy-2-(4-(methylsulfonyl)phenyl)naphthalen-1-yl)oxy)phenoxy)-6,9,12-trioxa-3-azatetradecan-14-yl)oxy)isoindoline-1,3-dione] | – | 62 | 51 | – | 37
– | 283 | CCN(CCOCCOCCNc1cccc2c1C(=O)N(C1CCC(=O)NC1=O)C2=O)CCOc1ccc(Oc2c(-c3ccc(S(C)(=O)=O)cc3)ccc3cc(O)ccc23)cc1 (centres unmarked) [Compound D42] | 37 | 77 | 46 | – | 39
– | – | CCN(CCOCCOCCOc1cccc2c1C(=O)N(C1CCC(=O)NC1=O)C2=O)CCOc1ccc(Oc2c(-c3ccc(S(C)(=O)=O)cc3)ccc3cc(O)ccc23)cc1 (centres unmarked) [Compound D41] | – | 65 | 50 | – | 31
– | – | CCN(CCCCCOCC(=O)Nc1cccc2c1CN(C1CCC(=O)NC1=O)C2=O)CCOc1ccc(Oc2c(-c3ccc(S(C)(=O)=O)cc3)ccc3cc(O)ccc23)cc1 (centres unmarked) [Compound D1, N-(2-(2,6-dioxopiperidin-3-yl)-1-oxoisoindolin-4-yl)-2-((5-(ethyl(2-(4-((6-hydroxy-2-(4-(methylsulfonyl)phenyl)naphthalen-1-yl)oxy)phenoxy)ethyl)amino)pentyl)oxy)acetamide] | 30 | 79 | 73 | 33 | –
– | – | C[C@@H]1CN(CCOc2ccc(Oc3c(-c4ccc(S(C)(=O)=O)cc4)ccc4cc(O)ccc34)cc2)[C@@H](C)CN1CCN1CCN(c2ccc3c(c2)C(=O)N(C2CCC(=O)NC2=O)C3)CC1 (stereo partly drawn) [Compound D61, 3-(6-(4-(2-((2R,5S)-4-(2-(4-((6-hydroxy-2-(4-(methylsulfonyl)phenyl)naphthalen-1-yl)oxy)phenoxy)ethyl)-2,5-dimethylpiperazin-1-yl)ethyl)piperazin-1-yl)-1-oxoisoindolin-2-yl)piperidine-2,6-dione] | 45.6 | – | – | 40.2 | 32.7
– | 502 | CCN(CCCc1ccc2c(c1)CN(C1CCC(=O)NC1=O)C2=O)CCOc1ccc(Oc2c(-c3ccc(S(C)(=O)=O)cc3)ccc3cc(O)ccc23)cc1 (centres unmarked) [Compound D4, 3-(5-(3-(ethyl(2-(4-((6-hydroxy-2-(4-(methylsulfonyl)phenyl)naphthalen-1-yl)oxy)phenoxy)ethyl)amino)propyl)-1-oxoisoindolin-2-yl)piperidine-2,6-dione] | – | 80 | 63 | 32 | 53
– | – | CS(=O)(=O)c1ccc(-c2ccc3cc(O)ccc3c2Oc2ccc(OCCOCCOCCN3CCN(c4ccc5c(c4)C(=O)N(C4CCC(=O)NC4=O)C5=O)CC3)cc2)cc1 (centres unmarked) [Compound D16, 2-(2,6-dioxopiperidin-3-yl)-5-(4-(2-(2-(2-(4-((6-hydroxy-2-(4-(methylsulfonyl)phenyl)naphthalen-1-yl)oxy)phenoxy)ethoxy)ethoxy)ethyl)piperazin-1-yl)isoindoline-1,3-dione] | 51 | 47 | – | 33 | –
– | 198 | CCN(CCOCCOCCNc1ccc2c(c1)C(=O)N(C1CCC(=O)NC1=O)C2=O)CCOc1ccc(Oc2c(-c3ccc(S(C)(=O)=O)cc3)ccc3cc(O)ccc23)cc1 (centres unmarked) [Compound D45] | 35 | 75 | 44 | 33 | –
– | – | CCN(CCOCCNc1ccc2c(c1)C(=O)N(C1CCC(=O)NC1=O)C2=O)CCOc1ccc(Oc2c(-c3ccc(S(C)(=O)=O)cc3)ccc3cc(O)ccc23)cc1 (centres unmarked) [Compound D38, […]] | – | 54 | 47 | – | –
– | – | CCN(CCOCC(=O)N1CCN(c2cccc3c2CN(C2CCC(=O)NC2=O)C3=O)CC1)CCOc1ccc(Oc2c(-c3ccc(S(C)(=O)=O)cc3)ccc3cc(O)ccc23)cc1 (centres unmarked) [Compound D52] | 52.6 | – | – | 39.4 | –
